molecular target: PIK3CA (human) (UniProt P42336); test: Cell-Based Assay; conditions: bt474
Sequence (P42336 whole entry, looked up): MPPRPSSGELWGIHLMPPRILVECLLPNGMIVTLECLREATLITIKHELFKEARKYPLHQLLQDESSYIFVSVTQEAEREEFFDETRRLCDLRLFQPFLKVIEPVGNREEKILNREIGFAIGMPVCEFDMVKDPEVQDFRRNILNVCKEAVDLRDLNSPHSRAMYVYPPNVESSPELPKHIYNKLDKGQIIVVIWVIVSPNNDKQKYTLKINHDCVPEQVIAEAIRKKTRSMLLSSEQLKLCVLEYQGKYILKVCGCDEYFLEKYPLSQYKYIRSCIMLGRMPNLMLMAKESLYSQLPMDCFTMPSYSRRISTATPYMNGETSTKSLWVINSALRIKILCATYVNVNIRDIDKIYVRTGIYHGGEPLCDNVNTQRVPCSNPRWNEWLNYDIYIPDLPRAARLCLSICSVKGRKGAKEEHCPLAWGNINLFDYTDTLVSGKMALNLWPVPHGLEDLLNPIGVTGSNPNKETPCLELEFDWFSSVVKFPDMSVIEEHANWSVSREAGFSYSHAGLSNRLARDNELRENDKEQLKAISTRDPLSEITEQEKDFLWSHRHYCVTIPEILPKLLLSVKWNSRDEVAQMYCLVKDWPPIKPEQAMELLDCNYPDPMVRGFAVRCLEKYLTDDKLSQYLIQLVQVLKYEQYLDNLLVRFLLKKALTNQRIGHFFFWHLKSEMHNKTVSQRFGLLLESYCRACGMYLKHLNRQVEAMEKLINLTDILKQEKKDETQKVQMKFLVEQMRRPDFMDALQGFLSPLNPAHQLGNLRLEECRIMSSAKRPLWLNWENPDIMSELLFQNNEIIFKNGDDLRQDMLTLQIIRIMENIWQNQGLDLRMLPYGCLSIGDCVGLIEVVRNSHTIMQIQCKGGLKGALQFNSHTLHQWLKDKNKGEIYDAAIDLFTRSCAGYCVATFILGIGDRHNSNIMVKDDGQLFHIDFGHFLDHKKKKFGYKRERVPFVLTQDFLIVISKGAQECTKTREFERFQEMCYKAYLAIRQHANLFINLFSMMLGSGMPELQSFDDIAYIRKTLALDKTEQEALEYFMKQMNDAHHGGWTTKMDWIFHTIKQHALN

| Structure (SMILES) | IC50 |
| --- | --- |
| Cn1c(=O)n([C@H]2CCCOC2)c2c3cc(-c4ccc(OCCCN5CCCCC5)nc4)ccc3ncc21 | > 10.9 µM |
| O=c1[nH]c2cnc3ccc(-c4ccc(OCCCN5CCCCC5)nc4)cc3c2n1C1CCOCC1 | > 25 µM |
| CO[C@H]1C[C@@H](n2c(=O)n(C)c3cnc4cc(F)c(-c5ccc(OCCCN(C)C)nc5)cc4c32)C1 | > 30 µM |
| CN(C)CCCOc1ccc(-c2cc3c(cc2F)ncc2c3n(C3COC3)c(=O)n2C)cn1 | > 29.1 µM |
| CO[C@H]1C[C@@H](n2c(=O)n(C)c3cnc4cc(F)c(-c5ccc(OCCCN6CCCC6)nc5)cc4c32)C1 | > 29.8 µM |
| Cn1c(=O)n([C@H]2CCCOC2)c2c3cc(-c4ccc(OCCCN5CCCCC5)nc4)c(F)cc3ncc21 | > 23.5 µM |
| Cn1c(=O)n(C2COC2)c2c3cc(-c4ccc(OCCCN5CCCCC5)nc4)ccc3ncc21 | > 26.3 µM |
| Cn1c(=O)n(C2CCC2)c2c3cc(-c4ccc(OCCCN5CCCC5)nc4)ccc3ncc21 | > 9.56 µM |
| CN(C)CCCOc1ccc(-c2cc3c(cc2F)ncc2c3n([C@@H]3CCCOC3)c(=O)n2C)cn1 | 10 µM |
| Cn1c(=O)n([C@H]2CCCOC2)c2c3cc(-c4ccc(OCCCN5CCCC5)nc4F)ccc3ncc21 | > 16.2 µM |
| Cn1c(=O)n([C@H]2CCCOC2)c2c3cc(-c4ccc(OCCCN5CCC5)nc4)ccc3ncc21 | 0.499 µM |
| Cn1c(=O)n(C2CCC2)c2c3cc(-c4ccc(OCCCN5CCCCC5)nc4)ccc3ncc21 | > 14.3 µM |
| Cn1c(=O)n([C@H]2CCCOC2)c2c3cc(-c4ccc(OCCCN5CCCC5)nc4)c(F)cc3ncc21 | > 30 µM |
| CN(C)CCCOc1ccc(-c2ccc3ncc4c(c3c2)n(C2COC2)c(=O)n4C)cn1 | 6.84 µM |
| CN(C)CCCOc1ccc(-c2ccc3ncc4c(c3c2)n([C@H]2C[C@@H](O)C2)c(=O)n4C)cn1 | 1.08 µM |
| CN(C)CCCOc1ccc(-c2cc3c(cc2F)ncc2c3n([C@H]3CCCOC3)c(=O)n2C)c(F)n1 | > 9.4 µM |
| CO[C@H]1C[C@@H](n2c(=O)n(C)c3cnc4cc(F)c(-c5ccc(OCCCN(C)C)nc5F)cc4c32)C1 | > 28 µM |
| CN(C)CCCOc1ccc(-c2cc3c(cc2F)ncc2c3n([C@H]3CCCOC3)c(=O)n2C)cn1 | > 20.2 µM |
| Cn1c(=O)n(C2CCOCC2)c2c3cc(-c4ccc(OCCCN5CCCCC5)nc4)c(F)cc3ncc21 | > 16.7 µM |

— the Kinase Knowledgebase extract (Sharma et al. 2016)
